Laboratory results taken from patent US20250108038A1 (priority 2023, published 2025).
Where “and” joins values, the source holds several entries; their conditions need not be identical. Identical values can stand only once. Like-named read-outs stand apart in the source and are kept apart here.

Legend:
[1] = in vitro; settings: beagle, dog, plasma
Protocol: (§1) Pooled (N≥3) male SD rat, beagle dog and mixed gender human plasma with EDTA-K2 as anticoagulant were purchased from BioIVT (NY, USA) and stored in a −70° C. freezer before use.
(§2) Incubations were conducted in 96-well plate format. The time points defined for this study are 0, 5, 15, 30 and 60 minutes.
(§3) For positive controls, the rat plasma was spiked with enalapril, the dog plasma spiked with bisacodyl and the human plasma was spiked with propantheline. All spiked plasma sample plates were incubated in a water bath at 37° C. with shaking.
(§4) At end of each time point, samples were immediately quenched with three volume of cold quenching solution. All sample plates were mixed thoroughly by shaking for approximately 10 minutes and centrifuged at 3220×g for 15 minutes. Subsequently, 100 μL of supernatant was removed from each well, mixed with 100 μL water in a new 96-well plate and subjected to LC-MS/MS analysis.
(§5) Concentrations of test article, metabolite, and control compounds in the samples were analyzed by LC-MS/MS semi-quantitatively. […] The peak area ratios of analyte/internal standard were used to semi-quantitatively determine the concentrations.
(§6) The peak area ratios (PAR) of analyte/internal standard were used to semi-quantitatively determine the concentration of test article and control compounds, and calculate the percent remaining with the following equation:
(§7) The elimination rate (ke) was calculated from a log linear plot of % remaining versus time. The half-life was calculated using the following equation:

[2] = Stability in beagle dog plasma; settings: 2.0 μM
Protocol: as §1, §2, §3, §4, §5, §6, §7

[3] = molecular target: T1, CYP1A2 (Homo sapiens, UniProt P05177); experiment: in vitro; settings: both, microsomes, pH 7.4
T1 sequence (P05177 1-516): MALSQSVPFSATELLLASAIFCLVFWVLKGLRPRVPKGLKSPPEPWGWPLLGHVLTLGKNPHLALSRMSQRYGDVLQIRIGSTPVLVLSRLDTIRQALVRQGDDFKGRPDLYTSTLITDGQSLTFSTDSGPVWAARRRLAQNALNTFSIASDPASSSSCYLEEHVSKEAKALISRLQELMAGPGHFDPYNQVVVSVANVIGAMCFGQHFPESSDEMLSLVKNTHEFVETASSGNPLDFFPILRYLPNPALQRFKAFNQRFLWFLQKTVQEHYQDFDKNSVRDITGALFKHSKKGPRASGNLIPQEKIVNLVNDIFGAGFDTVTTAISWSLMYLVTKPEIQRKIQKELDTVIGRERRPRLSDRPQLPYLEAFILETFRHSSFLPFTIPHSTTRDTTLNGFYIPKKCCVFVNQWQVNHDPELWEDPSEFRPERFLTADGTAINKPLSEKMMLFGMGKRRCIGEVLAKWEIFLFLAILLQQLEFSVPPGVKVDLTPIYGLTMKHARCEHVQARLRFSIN

[4] = molecular target: T2, CYP2C19 (Homo sapiens, UniProt P33261); experiment: in vitro; settings: both, pH 7.4
T2 sequence (P33261 whole entry): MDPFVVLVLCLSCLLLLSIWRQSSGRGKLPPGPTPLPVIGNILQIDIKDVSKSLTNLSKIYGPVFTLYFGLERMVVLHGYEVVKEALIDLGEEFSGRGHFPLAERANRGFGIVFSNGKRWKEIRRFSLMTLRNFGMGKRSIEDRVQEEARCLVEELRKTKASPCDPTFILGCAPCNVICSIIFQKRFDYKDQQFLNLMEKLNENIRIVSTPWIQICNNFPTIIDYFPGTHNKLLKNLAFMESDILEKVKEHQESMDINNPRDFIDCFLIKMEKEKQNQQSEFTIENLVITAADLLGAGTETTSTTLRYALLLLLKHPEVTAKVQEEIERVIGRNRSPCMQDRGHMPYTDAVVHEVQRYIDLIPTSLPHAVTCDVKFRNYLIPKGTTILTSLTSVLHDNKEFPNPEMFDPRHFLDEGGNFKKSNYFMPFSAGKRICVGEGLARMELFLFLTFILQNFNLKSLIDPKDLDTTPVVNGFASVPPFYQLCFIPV

[5] = molecular target: T2, CYP2C19; experiment: biochemical
[6] = molecular target: T3, MATE1 (Homo sapiens, UniProt Q96FL8); experiment: in vitro
T3 sequence (Q96FL8 1-570): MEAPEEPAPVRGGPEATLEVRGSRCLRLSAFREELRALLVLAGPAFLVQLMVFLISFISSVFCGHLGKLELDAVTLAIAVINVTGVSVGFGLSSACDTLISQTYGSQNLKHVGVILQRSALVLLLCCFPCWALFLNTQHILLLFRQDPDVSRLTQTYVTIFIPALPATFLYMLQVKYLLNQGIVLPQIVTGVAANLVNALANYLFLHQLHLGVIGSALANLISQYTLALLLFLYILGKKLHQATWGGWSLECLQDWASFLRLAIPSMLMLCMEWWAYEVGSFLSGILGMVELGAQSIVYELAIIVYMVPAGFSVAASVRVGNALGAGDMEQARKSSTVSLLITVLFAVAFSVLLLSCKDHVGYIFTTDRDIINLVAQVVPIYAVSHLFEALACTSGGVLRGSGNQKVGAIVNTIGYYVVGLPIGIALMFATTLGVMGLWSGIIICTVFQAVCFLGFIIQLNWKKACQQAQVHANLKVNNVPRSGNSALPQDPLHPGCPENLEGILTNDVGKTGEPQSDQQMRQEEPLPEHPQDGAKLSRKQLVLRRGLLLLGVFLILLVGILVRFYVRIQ
Protocol: (§8) Uptake experiments were performed using HEK293 cells stably expressing the respective uptake transporters.
(§9) Cells were cultured at 37° C. in a humidified atmosphere containing 5% CO2 and were plated onto standard 96-well tissue culture plates.
(§10) Before the experiment, the medium was removed, and the cells were washed twice with 100 μL of pre-warmed (37° C.) assay buffer listed in Table 15. The cells were pre-incubated at 37° C. for 30 minutes in assay buffer containing the test article at appropriate concentrations (Table 16), appropriate solvents for solvent controls and the reference inhibitor for reference inhibitor wells. After the pre-incubation step solutions were removed. Uptake experiments were performed at 37° C. in 50 μL of assay buffer containing the probe substrate and the test article or solvent and controls.
(§11) After the experiment, cells were washed twice with 100 μL of appropriate cold buffer and lysed with 150 μL scintillation cocktail. Radiolabeled probe substrate transport was determined by liquid scintillation counting.
(§12) Uptake of the probe substrate in control cells provided background activity values for all data points.

[7] = molecular target: T4, MATE2-K (Homo sapiens, UniProt Q86VL8)
T4 sequence (Q86VL8 1-566 isoform Q86VL8-3): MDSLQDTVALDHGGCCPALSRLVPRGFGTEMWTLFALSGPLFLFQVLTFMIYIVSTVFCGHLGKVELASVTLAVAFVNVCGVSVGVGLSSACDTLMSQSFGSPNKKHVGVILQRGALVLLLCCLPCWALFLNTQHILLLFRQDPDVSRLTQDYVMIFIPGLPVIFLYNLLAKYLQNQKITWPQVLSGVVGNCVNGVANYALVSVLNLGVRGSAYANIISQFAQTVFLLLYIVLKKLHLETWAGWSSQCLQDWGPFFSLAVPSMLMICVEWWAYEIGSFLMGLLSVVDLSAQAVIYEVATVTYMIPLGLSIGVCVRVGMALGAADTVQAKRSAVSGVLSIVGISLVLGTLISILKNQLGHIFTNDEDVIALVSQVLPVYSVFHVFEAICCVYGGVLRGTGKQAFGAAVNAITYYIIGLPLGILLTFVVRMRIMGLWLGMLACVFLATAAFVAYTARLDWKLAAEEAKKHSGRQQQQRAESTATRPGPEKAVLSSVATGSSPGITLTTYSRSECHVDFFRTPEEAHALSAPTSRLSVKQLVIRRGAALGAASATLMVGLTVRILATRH
Protocol: as §8, §9, §10, §11, §12

[8] = molecular target: T3, MATE1
Protocol: as §8, §9, §10, §11, §12

[9] = molecular target: T4, MATE2-K; experiment: in vitro
Protocol: as §8, §9, §10, §11, §12

[10] = molecular target: T5, CYP2C8 (Homo sapiens, UniProt P10632); experiment: in vitro; settings: both, pH 7.4
T5 sequence (P10632 1-490): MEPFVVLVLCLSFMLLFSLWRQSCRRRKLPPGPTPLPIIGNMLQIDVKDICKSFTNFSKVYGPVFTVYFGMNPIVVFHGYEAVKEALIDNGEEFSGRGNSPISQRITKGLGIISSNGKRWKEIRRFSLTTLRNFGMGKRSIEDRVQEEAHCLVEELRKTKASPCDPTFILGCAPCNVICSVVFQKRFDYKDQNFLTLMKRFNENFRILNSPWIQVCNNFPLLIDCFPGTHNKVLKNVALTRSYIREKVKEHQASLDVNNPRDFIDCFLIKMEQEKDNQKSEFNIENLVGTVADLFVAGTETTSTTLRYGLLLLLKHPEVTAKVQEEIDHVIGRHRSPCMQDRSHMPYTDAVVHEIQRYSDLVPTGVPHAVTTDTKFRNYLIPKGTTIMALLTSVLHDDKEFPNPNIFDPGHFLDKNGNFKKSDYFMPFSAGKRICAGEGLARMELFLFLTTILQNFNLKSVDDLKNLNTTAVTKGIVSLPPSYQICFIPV

[11] = molecular target: CYP2D6 (Homo sapiens, UniProt P10635); experiment: in vitro; settings: both, pH 7.4
Sequence of CYP2D6 (P10635 whole entry): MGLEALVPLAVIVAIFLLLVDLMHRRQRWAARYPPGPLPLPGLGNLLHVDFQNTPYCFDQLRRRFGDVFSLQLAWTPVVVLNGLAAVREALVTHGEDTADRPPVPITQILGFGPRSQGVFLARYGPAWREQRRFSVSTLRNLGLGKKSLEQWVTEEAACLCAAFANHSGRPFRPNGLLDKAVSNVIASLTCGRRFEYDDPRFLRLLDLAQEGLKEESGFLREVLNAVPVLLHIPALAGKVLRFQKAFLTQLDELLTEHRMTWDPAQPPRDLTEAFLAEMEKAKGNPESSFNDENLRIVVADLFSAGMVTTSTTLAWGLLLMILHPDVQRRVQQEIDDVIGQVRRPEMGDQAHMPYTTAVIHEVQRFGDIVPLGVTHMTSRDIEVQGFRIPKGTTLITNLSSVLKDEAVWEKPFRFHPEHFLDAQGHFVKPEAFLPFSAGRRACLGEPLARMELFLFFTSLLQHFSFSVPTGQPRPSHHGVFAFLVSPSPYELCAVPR

[12] = molecular target: CYP2C9 (Homo sapiens, UniProt P11712); experiment: in vitro; settings: both, pH 7.4
Sequence of CYP2C9 (P11712 whole entry): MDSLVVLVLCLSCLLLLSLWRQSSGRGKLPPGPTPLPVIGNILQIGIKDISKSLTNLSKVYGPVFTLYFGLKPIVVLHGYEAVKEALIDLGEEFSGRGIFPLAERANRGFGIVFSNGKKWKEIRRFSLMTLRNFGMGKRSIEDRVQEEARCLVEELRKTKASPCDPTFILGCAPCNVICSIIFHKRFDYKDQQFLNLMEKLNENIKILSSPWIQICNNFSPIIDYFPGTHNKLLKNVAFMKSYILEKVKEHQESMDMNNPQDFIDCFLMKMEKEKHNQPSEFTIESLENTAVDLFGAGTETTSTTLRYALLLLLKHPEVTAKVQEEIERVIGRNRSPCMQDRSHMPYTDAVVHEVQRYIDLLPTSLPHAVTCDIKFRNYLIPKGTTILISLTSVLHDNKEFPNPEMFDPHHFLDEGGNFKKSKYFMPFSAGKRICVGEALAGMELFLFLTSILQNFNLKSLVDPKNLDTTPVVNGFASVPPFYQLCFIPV

CC(=O)Oc1ccc(C(c2ccc(OC(C)=O)cc2)c2ccccn2)cc1 [Bisacodyl, reference compound]
half-life at 2 μM [1]: 3.6 min | % Remaining ([2]; 0 min): 100% | Aa/Ai Mean (N = 2) ([2]; 0 min): 1.49 | % Remaining ([2]; 5 min): 45.9% | Aa/Ai Mean (N = 2) ([2]; 5 min): 0.68 | % Remaining ([2]; 15 min): 8.79% | Aa/Ai Mean (N = 2) ([2]; 15 min): 0.13 | % Remaining ([2]; 30 min): 0.34% | Aa/Ai Mean (N = 2) ([2]; 30 min): 0.01 | % Remaining ([2]; 60 min): 0.00% | Aa/Ai Mean (N = 2) ([2]; 60 min): 0.00

COCCCC/C(=N\OCCN)c1ccc(C(F)(F)F)cc1 [Fluvoxamine]
inhibition at 50 µM [3]: 101%

COc1ccc2[nH]c([S+]([O-])Cc3ncc(C)c(OC)c3C)nc2c1 (stereo not shown) [Omeprazole]
inhibition at 50 µM [4]: 89.9% | IC50 [5]: 7.36 µM

CCc1nc(N)nc(N)c1-c1ccc(Cl)cc1 [Pyrimethamine]
inhibition at 5 µM [6]: 102% | inhibition at 5 μM [6]: 101% | inhibition [7]: 101% | inhibition ([7]; 5 µM): 101% and 102% and 100% | inhibition [8]: 100% | inhibition ([8]; 5 µM): 100% | inhibition at 5 µM [9]: 95% | inhibition at 5 μM [9]: 98%

O=c1c(O)c(-c2ccc(O)c(O)c2)oc2cc(O)cc(O)c12 [Quercetin]
inhibition at 50 µM [10]: 102%

C=C[C@H]1C[N@@]2CC[C@H]1C[C@@H]2[C@@H](O)c1ccnc2ccc(OC)cc12 [Quinidine]
inhibition at 5 µM [11]: 96.2%

Nc1ccc(S(=O)(=O)Nc2ccnn2-c2ccccc2)cc1 [Sulfaphenazole]
inhibition at 50 µM [12]: 98.7%
